Laboratory results as given in patent US10364249B2, “Azatriangulenium salts as PET-quenched fluorescent probes” (KØBENHAVNS UNIVERSITET, priority 2013, dated 2019).
Like-named read-outs stand apart in the source and are kept apart here.

Experiments:
Format in all cases: physicochemical
[1] = Photophysical properties and pKa of DAOTA dyes, fluorescence intensity at different pH, 6% DMSO in PBS buffer; settings: for pKa: 6% DMSO in PBS buffer solution, normalized fluorescence intensity at 588 nm at different pH, sigmoidal fits (FIG. 8)
Text: FIG. 6. Absorption spectra of MR-68_DAOTA measured in 6% DMSO in PBS buffer solution. Circles (o) represent the absorption spectrum of the protonated form (measured at acidic conditions) and crosses (x) represent the absorption spectrum of the deprotonated form (measured at basic conditions).
FIG. 7. Emission spectra of MR-68_DAOTA measured in 6% DMSO in PBS buffer solution. Circles (o) represent the absorption spectrum of the protonated form (measured at acidic conditions) and crosses (x) represent the absorption spectrum of the deprotonated form (measured at basic conditions).
FIG. 8. […] The solid lines are sigmoidal fits to the experimental data.
(§1) Emission spectroscopy was performed in front-face set-up for sensor spot samples and in a conventional L-shape set-up for measuremetns in solution. A Perkin-Elmer LS50B and a Horiba Fluorolog 3 were used interchangeably. Intensity based sensor measurements were only performed on the LS50B platform. Fluorescence lifetime based sensor measurements were only performed on the Fluorolog 3. Absorption spectroscopy was performed on a Perkin Elmer Lambda1050, with integrating sphere (for sensor spots) and with a 3-detector module for solution samples.

[2] = Ratiometric emission of pH sensor spot with dyes bound into SOL-GEL-matrix at different pH; settings: for pKa from ratiometric emission signal: with R1C
Method: FIG. 9. Emission spectra of a pH sensor spot loaded with I1C (signal at ca. 590 nm) and R1C (signal at ca. 650 nm) covalently bound into the SOL-GEL-matrix recorded at different pH values (solid line: pH 2.48, circles: pH 6.26, crosses: 9.89).
as §1
The compounds according to 6 or 7 are mixed into either the ETEOS or the GPTMS gel component 1 h after mixing of the materials described. Subsequently, the ETEOS or the GPTMS gel components are mixed. The two components are then mixed in 1:1 molar ratio and left at a stirring table for no less than 3 days. The dyes 6 or 7 are added in an amount so that a final concentration of 0.1 mM of dye is obtained in the final GPTMS-ETEOS mixture. The resulting GPTMS-ETEOS-dye mixture is then deposited and cured at 110° C. for 3-4 hours.

[3] = Absorption and emission spectra, photophysical properties of pH-responsive triangulenium dyes in solution; set-up: λmax (wavelength of maximum absorption) / λem (wavelength of maximum emission): unit not given here; settings: for pKa / λem (wavelength of maximum emission) / λmax (wavelength of maximum absorption): in solution; for ϕfl- (φfl-off, fluorescence quantum yield, off-state): off-state (quenched); for ϕfl- (φfl-on, fluorescence quantum yield, on-state): on-state (not quenched)
Method: Absorption and emission spectrum of the prepared triangulenium compounds of Formula (I) were measured and their photophysical properties are compiled in table 2.
pKa is −log10 of the acid dissociation constant, Ka, and is a quantitative measure of the strength of an acid in solution. λmax denotes the wavelength wherein maximum absorption is obtained. λem denotes the wavelength wherein maximum emission is obtained. φfl-on and φfl-off are the fluorescence quantum yields, wherein the responsive fluorescent compounds are in their on-state (not quenched) and off-state (quenched), respectively. Ion/Ioff is the ratio between φfl-on and φfl-off.
All disclosed absorption and emission spectrum measurement shown herein are measured as follows:
as §1

[4] = Readout and chemical stability of optical sensor of DMQA+ and 4g in ORMOSIL matrix
Method: In order to validate the sensor performance, different stability tests were performed. One critical parameter for an optical sensor is known to be the read-out stability. Another critical parameter for optical sensors is the chemical stability.

[5] = Comparison of solution and sol-gel spectra and titration curves of 4g; settings: upon attaching to the matrix material
Text: The arrow indicates the change from pH˜11 to pH˜1.

[6] = first value of cell, protonated form
[7] = second value of cell, deprotonated form
[8] = covalently bound into the SOL-GEL-matrix

Molecule	η, quenching efficiency of the fluorescence intensity [1] [%]	pKa [1]	εmax, molar absorption coefficient [1, 6]	λ max, wavelength at the maximum fluorescence intensity [1, 6]	λabs max, wavelength at maximum absorption of the lowest energy transition [1, 6] [nm]	εmax, molar absorption coefficient [1, 7]	λ max, wavelength at the maximum fluorescence intensity [1, 7]	λabs max, wavelength at maximum absorption of the lowest energy transition [1, 7] [nm]	Ion/Io (Ion/Ioff, ratio between φfl-on and φfl-off) [3]	pKa [3]	λem (wavelength of maximum emission) [3]	λmax (wavelength of maximum absorption) [3]	ϕfl- (φfl-off, fluorescence quantum yield, off-state) [3] [%]	ϕfl- (φfl-on, fluorescence quantum yield, on-state) [3] [%]	other results
CN1c2cccc3c2C2c4c(cccc4N(c4cccc(O)c4)c4cccc1c42)O3 (stereo not drawn)	99	8.5	13600 M⁻¹ cm⁻¹	590/590 nm	554	13500 M⁻¹ cm⁻¹	590/590 nm	559							
8-(1-methyl-1-propyl-3-(3-(triethoxysilyl)propyl)urea)-4,8-diazatriangulenium-4-(4-(methylsulfonyl)phenolate) [Compound I2C]															pKa from ratiometric emission signal [2, 8]: 5.4
8-(1-methyl-1-propyl-3-(3-(triethoxysilyl)propyl)urea)-4,8-diazatriangulenium-4-(4-(trifluoromethyl)phenolate) [Compound I1C]															emission signal ([2]; pH sensor spot, covalently bound into the SOL-GEL-matrix): ca. 590 nm; pKa from ratiometric emission signal [2, 8]: 6.3
Oc1ccccc1N1c2cccc3c2C2c4c(cccc4Oc4cccc1c42)O3 [Compound 3b, N-(2-hydroxyphenyl)-azadioxatriangulenium tetrafluoroborat]									~50	6.9	558	541	>0.5	8	
Oc1cccc(N2c3cccc4c3C3c5c(cccc5Oc5cccc2c53)O4)c1 [Compound 3c, N-(3-hydroxyphenyl)-azadioxatriangulenium tetrafluoroborat]									~50	7.3	558	540	>0.5	8	
Oc1ccc(N2c3cccc4c3C3c5c(cccc5Oc5cccc2c53)O4)cc1 [Compound 3d]									~50	8.3	563	540	>0.5	2	
CCCCCCCCCCCCN1c2cccc3c2C2c4c(cccc4N(c4cc(F)ccc4O)c4cccc1c42)O3 (stereo not drawn) [Compound 4f, 4-dodecyl-8-(5-fluoro-2-hydroxyphenyl)-4,8-diaza-12-oxa-4,8,12,12c-tetrahydro-dibenzo[cd,mn]-pyrenylium]											590	557			
CCCCCCCCCCCCN1c2cccc3c2C2c4c(cccc4N(c4cc(S(C)(=O)=O)ccc4O)c4cccc1c42)O3 (stereo not drawn) [Compound 4g, 4-dodecyl-8-(2-hydroxy-5-(methylsulfonyl)phenyl)-4,8-diaza-12-oxa-4,8,12,12c-tetrahydro-dibenzo[cd,mn]-pyrenylium]									~100	3.4	590	557	6	26	responsiveness of ratiometric readout signal ([4]; constant illumination, low and high pH): maintains its responsiveness; ratiometric readout signal stable for ([4]; high and low pH): at least 16 hours; spectral change and pH response, solution versus sol-gel [5]: spectral change is minimal while the response to changing pH is maintained
CCCCCCCCCCCCn1c2cccc3oc4cccc5c4[c+](c32)c2c1cccc2n5-c1cc(C(F)(F)F)ccc1O [Compound 4h, N-(2-hydroxy-5-(trifluoromethyI)phenyl)-N-dodecyl-diazaoxatriangulenium hexafluorophosphat]									~50	6.5	590	557			
CCO[Si](CCCNC(=O)N(C)CCCn1c2cccc(OC)c2[c+]2c3c(OC)cccc3n(CCCN(C)C(=O)NCCC[Si](OCC)(OCC)OCC)c3cccc1c32)(OCC)OCC [Compound R1C, 5,9-bis(4,4-diethoxy-10-methyl-9-oxo-3-oxa-8,10-diaza-4-silatridecan-13-yl)-1,13-dimethoxy-5,9-dihydro-13bH-quinolino[2,3,4-kl]acridin-13b-ylium hexafluorophosphate]															emission signal [2]: ca. 650 nm
CN1c2cccc3c2C2c4c(cccc4N(c4cc(C(F)(F)F)ccc4O)c4cccc1c42)O3 (stereo not drawn) [MR-66_DAOTA]	>99	6.2	16600/16600 M^−1cm^−1	585 nm	553	16600/16600 M^−1cm^−1	588 nm	558							
CN1c2cccc3c2C2c4c(cccc4N(c4cc(O)cc(C(F)(F)F)c4)c4cccc1c42)O3 (stereo not drawn) [MR-67.1_DAOTA]	99	7.3	14700 M⁻¹ cm⁻¹	586 nm	553	14300 M⁻¹ cm⁻¹	588 nm	557							
CN1c2cccc3c2C2c4c(cccc4N(c4ccc(O)cc4)c4cccc1c42)O3 (stereo not drawn) [MR-93_DAOTA]	>99	8.6	14400 M⁻¹ cm⁻¹	591/591 nm	555	14100 M⁻¹ cm⁻¹	591/591 nm	560							
